PMC10186366 (ACS Pharmacology & Translational Science, 2023)
“And” between values parts separate entries of the source, which are not always exact repeats. Identical values can stand only once.

Experiments:
SHMT2 = target: T1, SHMT2 (Homo sapiens, UniProt P34897); experiment: SHMT2 coupled enzyme assay with MTHFD2 (NADH production); format: biochemical; conditions: mean (standard error), at least three replicate assays
T1 construct: N-terminal His6-tagged SHMT2 (residues 30–504); made in house; host or cells: E. coli Rosetta (DE3)pLysS
T1 sequence (P34897 30-504): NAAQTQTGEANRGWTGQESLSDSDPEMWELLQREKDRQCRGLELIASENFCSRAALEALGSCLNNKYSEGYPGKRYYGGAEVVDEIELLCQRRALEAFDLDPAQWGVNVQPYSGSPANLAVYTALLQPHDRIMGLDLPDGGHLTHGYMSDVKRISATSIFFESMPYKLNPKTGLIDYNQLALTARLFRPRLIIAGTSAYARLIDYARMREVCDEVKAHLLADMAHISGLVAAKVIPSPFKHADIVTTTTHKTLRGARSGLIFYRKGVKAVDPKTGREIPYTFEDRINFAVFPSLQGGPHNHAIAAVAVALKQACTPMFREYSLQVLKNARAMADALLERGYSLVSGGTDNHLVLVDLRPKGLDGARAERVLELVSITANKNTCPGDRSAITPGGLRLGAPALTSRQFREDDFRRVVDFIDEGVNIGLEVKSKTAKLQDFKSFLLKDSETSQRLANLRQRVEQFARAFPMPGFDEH
Protocol: N-terminal His6-tagged SHMT2 (residues 30–504) and full-length MTHFD2 were expressed in Rosetta (DE3)pLysS cells. One liter cultures were grown in LB media with 100 mg/mL ampicillin and 35 mg/mL chloramphenicol at 37 °C until the OD600 was 0.6. […] The cells were pelleted and resuspended in 25 mL of 25 mM Tris–HCl, pH 7.5, 300 mM NaCl, and 5 mM β-Me. To lyse the cells, 40 mg lysozyme and 8 U DNAse I were added followed by incubation on ice for 15 min. The cells were then lysed by emulsification.
Purification of His-SHMT2 and His-MTHFD2 was by Ni-affinity chromatography (above). For further purification of His-SHMT2, pyridoxal 5′-phosphate (PLP) was added (3-fold excess to His-SHMT2) followed by incubation for 16–18 h. Further purification was by size exclusion chromatography on a Superdex 200 16/60 column (GE Healthcare) with monitoring of PLP absorbance at 435 nm. Purified His-SHMT2 was stored in 20 mM sodium phosphate buffer, pH 7.5, 100 mM potassium chloride, 0.2 mM EDTA, and 5 mM β-ME. To further purify MTHFD2, size exclusion chromatography was performed using a Superdex 200 16/60 column (GE Healthcare). His-MTHFD2 was stored in 50 mM Tris–HCl buffer, pH 7.5, 250 mM sodium chloride, 5% glycerol, and 0.5 mM tris(2-chloroethyl) phosphate (TCEP).
Kinetic measurements were recorded in triplicate in a UV-transparent 96-well plate (Costar 3635) at 298 nm using a BioTek Synergy Neo2 Plate Reader. Initial slopes were graphed against inhibitor concentrations and fit to a three-parameter nonlinear regression to calculate IC50 values for each compound (GraphPad Prism 8.0). […] SHMT2 activity was assayed by monitoring NADH production with a coupled assay including 500 nM His-SHMT2 and 10 μM His-MTHFD2 (1:200 molar ratio His-SHMT2/His-MTHFD2). NADH production by His-MTHFD2 was monitored by fluorescence at 470 nm with excitation at 360 nm (Synergy Neo2 Biotek plate reader). Inhibition constants (Ki’s) were calculated from the IC50 values using the equation Ki = IC50/([S]/KM + 1) and the Km and substrate concentration for THF. The THF concentration in the reaction was 50 mM.

[1] = test system: SHMT2 (mitochondrial C1 metabolism) in KB tumor cells; experiment: Targeted metabolomics flux analysis with [2,3,3-2H]serine in KB cells; format: cell-based, human; conditions: 0.1 μM compound, 250 μM [2,3,3-2H]serine, versus vehicle-treated cells
From the text: Serine is catabolized in the mitochondria via SHMT2, which converts serine to glycine and 5,10-methylene THF, the latter of which is metabolized by MTHFD2 to 10-CHOTHF and by MTHFD1L to formate (Figure 7).
The cells were processed for liquid chromatography–mass spectrometry (LC–MS) analysis of total serine and glycine, and deuterated serine (M + 3, M + 2, M + 1, and M + 0 serine, where M + n represents species with n deuterium atoms) and glycine (M + 1 and M + 0) isotopomers. The results are shown in Figure 8 and are compared to those for control (vehicle-treated) cells (labeled “N/A”).
Figure 8 Metabolomics flux analysis with [2,3,3-^2H]serine to assay mitochondrial C1 metabolism via SHMT2. (A) A schematic of [2,3,3-^2H]serine metabolism is shown. Heavy (^2H) atoms in serine (colored circles) are metabolized via SHMT2 initially followed by MTHFD2 and MTHFD1L to formate. (B, C) Total serine and glycine and the distribution of the serine (M + n, n = 0−3) and glycine (n = 0 or 1) isotopomers are shown. The loss of M + 3 serine corresponding to the metabolism of [2,3,3-^2H]serine to M + 1 glycine is a direct measure of SHMT2 activity in the cells.[45] Experimental methods are described in the Experimental Section. Results are shown as mean values plus/minus standard deviations (n = 3). *P < 0.05; **P < 0.01. […]
KB cells (1 × 10[6]) were seeded in each of three 60 mm dishes in folate-, serine-, and glycine-free RPMI1640 supplemented with 10% DFBS, 1% penicillin/streptomycin, 2 mM L-glutamine, 285 μM serine, 130 μM glycine, and 2 nM leucovorin. […] The targeted metabolites were quantitatively determined using the AB Sciex QTRAP 6500 LC–MS/MS system. […] Isotopomers were detected using multiple reaction monitoring (MRM) at the positive ionization mode. […] Absolute metabolite concentrations were calculated from calibration curves and then normalized to total protein concentrations measured from the postextraction pellet (solubilized in 0.5 N NaOH) using the Folin-phenol method.[53] […] To correct for multiple comparisons, adjusted p values were determined using Holm’s method.

[2] = test system: D4 CHO cells (expresses only human FRβ); conditions: 96 h; mean (standard error); previously published; cited from earlier work
[3] = test system: PC43-10 CHO cells (expresses only human RFC); conditions: 96 h; mean (standard error); previously published; cited from earlier work
KB tumor cells = experiment: Metabolite rescue of growth inhibition in KB cells; format: cell-based, human; conditions: glycine- and nucleoside-free media; for Protection from growth inhibition by adenosine: inhibitor up to 1000 nM, 60 μM adenosine alone
Protocol: Upper panel: schematic of C1 metabolism. Undefined abbreviations include the following: DHF, dihydrofolate; THF, tetrahydrofolate; FAICAR, formyl 5-aminoimidazole-4-carboxamide ribonucleotide; fGAR, formyl GAR; and 5,10-meTHF, 5,10-methylene tetrahydrofolate. Lower panels: KB cells were plated (4000 cells/well) in glycine-, nucleoside-, and folate-free RPMI 1640 medium with 10% dialyzed fetal bovine serum, antibiotics, L-glutamine, and 2 nM leucovorin over a range of inhibitor concentrations in the presence of adenosine (60 μM), glycine (160 μM), thymidine (10 μM), or AICA (320 μM). As shown, combined glycine plus adenosine or AICA was also tested to identify potential mitochondrial C1 targeting.[45] Cell proliferation was assayed with a fluorescence-based assay.[26] Data are representative of at least triplicate experiments (presented as mean values plus/minus standard errors). Methods are described in the Experimental Section, and additional metabolite rescue data for 4, 5, and 8–11 are presented in Figure S3 (Supporting Information).
Metabolite “rescue” experiments have been used to identify targeted pathways for novel antifolate inhibitors including de novo purine nucleotide and thymidylate biosynthesis (protection by adenosine and thymidine, respectively)[25]−[27],[29],[30],[32],[43],[45]−[47] and mitochondrial C1 metabolism (protection by glycine and adenosine).[45] To gain insights into the targeted pathways that contribute to the loss of KB tumor cell proliferation upon treatment with compounds 3–9, we tested the reversal of growth inhibition by the active compounds in Table 1 (up to 1000 nM) in glycine- and nucleoside-free media in the presence of 60 μM adenosine, 160 μM glycine, or 10 μM thymidine alone or with combined adenosine and glycine. The use of glycine- and nucleoside-free media for these experiments expands the ability to identify causal intracellular targets (including previously unrecognized mitochondrial targets[45]) that can be confirmed by targeted metabolomics and direct in vitro assays (below). […] The results of these experiments are shown in Figure 7 (lower panel) and in Figure S3 (Supporting Information).
AICA circumvents the first folate-dependent enzyme, GARFTase, and is directly metabolized to ZMP (AICAR), thus providing a substrate for AICARFTase[26],[32],[46] (Figure 7, upper panel). This distinguishes primary inhibition at GARFTase (protection by AICA) versus AICARFTase (incomplete protection by AICA) for inhibitors of de novo purine biosynthesis.[25]
Additional proliferation assays with metabolite rescue used KB cells to identify the targeted pathway and enzyme(s) in folate- and glycine-free RPMI1640, DFBS, 2 mM glutamine, and antibiotics. […] These assays have been previously described.[25],[26],[45]

[4] = test system: RT16 CHO cells (expresses only human FRα); conditions: 96 h; mean (standard error); previously published; cited from earlier work
[5] = test system: KB human tumor cells (RFC/FRα/PCFT); conditions: 96 h, no folic acid; mean (standard error); previously published; cited from earlier work
human GARFTase = target: T2, human GARFTase (Homo sapiens, UniProt P22102); set-up: method as in PMID 33773393, PMID 31289137, PMID 27439469; conditions: mean (standard error); previously reported; cited from earlier work
T2 construct: GARFTase (formyltransferase domain; residues 808–1010); made in house; host or cells: E. coli Rosetta (DE3)pLysS
T2 sequence (P22102 808-1010): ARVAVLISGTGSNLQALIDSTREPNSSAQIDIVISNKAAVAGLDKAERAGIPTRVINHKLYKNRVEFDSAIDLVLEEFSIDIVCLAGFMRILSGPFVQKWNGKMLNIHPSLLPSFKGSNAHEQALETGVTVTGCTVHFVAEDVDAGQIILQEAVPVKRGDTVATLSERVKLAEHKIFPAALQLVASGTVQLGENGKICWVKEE

Structure (SMILES) | Ki (SHMT2) [µM] | Increase in M + 3 serine [1] | IC50 [2] [nM] | IC50 [3] [nM] | Protection from growth inhibition by glycine plus adenosine over adenosine alone (KB tumor cells; 160 μM glycine combined with 60 μM adenosine) | IC50 [4] | Protection from growth inhibition by adenosine (KB tumor cells) | IC50 [5] [nM] | Ki (human GARFTase) [µM]
Nc1nc2sc(CCCCc3ccc(C(=O)N[C@@H](CCC(=O)O)C(=O)O)cc3)cc2c(=O)[nH]1 [Compound 2] | 12.4 | 2–4 fold | 20 | > 1000 | substantially enhanced and was complete | 9 nM |  |  | 
Nc1nc2sc(CCCc3csc(C(=O)N[C@@H](CCC(=O)O)C(=O)O)c3)cc2c(=O)[nH]1 [Compound 10] |  |  | 0.24 | > 1000 |  | 0.4 nM and 0.44 nM | completely protective | 1.48 | 
Nc1nc2sc(CCCCc3csc(C(=O)N[C@@H](CCC(=O)O)C(=O)O)c3)cc2c(=O)[nH]1 [Compound 11] |  |  | 5.63 | > 1000 |  | 5.62 nM | completely protective | 6.85 | > 150
Nc1nc2[nH]cc(CCc3ccc(C(=O)N[C@@H](CCC(=O)O)C(=O)O)cc3)c2c(=O)[nH]1 [PMX, reference compound] |  |  | 60 |  |  | 42 nM |  |  | 
